# Test results published in patent US20060057628A1, “Method for prognosticating the progress of breast cancer and compounds useful for prevention or treatment thereof” (priority 2003, published 2006).
# Assays:
# [1] = target: T1, 17HSD type 1 (Homo sapiens, UniProt P14061); assay: 17HSD type 1 inhibition in MCF-7 cells stably expressing 17HSD type 1 (HPLC detection of tritium labeled estrone conversion); type: cell-based; design: expressed in transfected cells; host or cells: MCF-7 cells stably expressing 17HSD type 1; conditions: MCF-7 cells expressing 17HSD type 1, substrate estrone 20 nM
# T1 sequence (P14061 1-328): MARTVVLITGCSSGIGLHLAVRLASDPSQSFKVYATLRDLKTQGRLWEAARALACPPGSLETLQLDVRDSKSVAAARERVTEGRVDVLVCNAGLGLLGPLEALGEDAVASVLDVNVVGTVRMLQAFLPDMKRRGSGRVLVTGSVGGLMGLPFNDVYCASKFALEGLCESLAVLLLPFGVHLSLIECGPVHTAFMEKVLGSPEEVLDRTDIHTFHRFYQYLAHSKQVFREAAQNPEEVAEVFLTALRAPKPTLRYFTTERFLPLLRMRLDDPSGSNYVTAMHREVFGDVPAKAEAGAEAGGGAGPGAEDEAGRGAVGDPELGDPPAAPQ
# Text: (§1) The tested compounds (about 1000 selected different compounds) were screened in respect of 17HSD enzyme activities according to the following method:
# (§2) The compounds were screened in respect of 17HSD enzyme activities in vitro on two established MCF-7 cell lines, each stably expressing one 17HSD isoenzyme, either 17HSD type 1 or 17HSD type 2, but not the other one. The interconversion of substrate by each isoenzyme and the HSD-inhibiting activity of chemical compounds in these cell lines was detected by HPLC system (Miettinen et al., Int J Cancer (1996) 68, 600-604).
# (§3) Varying amounts of the test compounds were incubated in the growth medium of the 17HSD expressing cells together with tritium labeled substrate (estrone for 17HSD type 1 enzyme; 20 nM). The medium samples were removed after exact incubation time and the reaction was stopped by deepfreezing. The samples were analyzed by HPLC-coupled flow scintillation analysis. The 17HSD-inhibiting activity of the test compounds was compared to known reference compound apigenin and to a negative control.
# [2] = target: T2, 17HSD type-2 enzyme (Homo sapiens, UniProt P37059); assay: 17HSD type 2 inhibition in MCF-7 cells stably expressing 17HSD type 2 (HPLC detection); type: cell-based; conditions: MCF-7 cells expressing 17HSD type 2; concentration not given
# T2 construct: expressed in transfected cells; host or cells: MCF-7 cells stably expressing 17HSD type 2
# T2 sequence (P37059 1-387): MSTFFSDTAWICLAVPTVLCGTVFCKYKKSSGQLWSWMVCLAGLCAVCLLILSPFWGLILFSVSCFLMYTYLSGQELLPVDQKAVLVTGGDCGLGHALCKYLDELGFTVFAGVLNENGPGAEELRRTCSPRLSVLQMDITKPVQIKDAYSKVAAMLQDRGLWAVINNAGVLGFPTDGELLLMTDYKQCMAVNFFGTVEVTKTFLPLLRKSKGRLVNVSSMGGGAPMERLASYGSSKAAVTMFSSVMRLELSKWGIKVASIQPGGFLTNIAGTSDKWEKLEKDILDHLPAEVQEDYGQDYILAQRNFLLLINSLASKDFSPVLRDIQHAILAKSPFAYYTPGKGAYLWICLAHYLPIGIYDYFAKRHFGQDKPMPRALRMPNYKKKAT
# Text: as §1, §2, §3
"inhibition at 1 µM ([1]; MCF7, concentration 1 μM)",inhibition of the 17HSD type-2 enzyme [2],inhibition of the 17HSD type 1 enzyme ([1]; concentration 1 μM),inhibition of the 17HSD type 1 enzyme ([1]; concentration 10 μM),SMILES
48%,5%,–,–,O=c1cc(-c2ccc(O)cc2)oc2cc(O)cc(O)c12 [apigenin]
–,did not show any inhibition effect,80%,95%,O=CC1=C(Sc2ccccc2)c2sc3nc4n(c(=O)c3c2CC1)CCCCC4 [Compound A]
